This note sets out measurements from patent publication EP4389827A1, “AMINOGLYCOSIDE-LINKED PHOTOSENSITIZERS” (Centre National de la Recherche Scientifique, priority 2022, dated 2024).

Molecules are shown by their SMILES. Like-named read-outs stand apart in the source and are kept apart here.

One assay relates to B. subtilis 168. The experiment in a line: Minimal inhibitory concentration (EUCAST), with or without 660 nm irradiation. It counts as cell-based, Bacillus subtilis. To be noted: read-out: MIC. As for the experimental part:
(§1) Acinetobacter baumannii DSM30011, Bacillus subtilis 168, Pseudomonas aeruginosa PA14, P. aeruginosa PAO1, Staphylococcus aureus Mu50, S. aureus Newman and S. aureus USA300 were all grown in MHB-CA at 37°C with an agitation of 180 rpm. Candida albicans SC5314 was grown in yeast extract peptone dextrose broth at 35°C with an agitation of 180 rpm.
(§2) Minimal inhibitory concentrations (MICs) for selected bacteria were investigated according to the EUCAST guidelines. Serial dilutions of the compounds, photosensitizers and aminoglycosides were made in MHB-CA in 384-well plates. Stationary-phase cells were diluted in MHB-CA to have a final concentration of 5.5 × 10^5 CFU/mL. Samples were incubated in the dark for 20 minutes at 37°C and either irradiated at 660 nm for 30 minutes with a LED device or kept in the dark. Irradiated samples received a total of 168 mJ/mm^2. Plates were then incubated at 37°C for 18 hours and MICs were evaluated visually. Triplicates were done and the synergy, or fractional inhibitory concentration (FIC), was calculated according to Doern et al., 2014: FIC = (MIC of AB)/(MIC of A) + (MIC of AB)/(MIC of B) [formula]

The next assay concerns C. albicans SC5314. Description: Minimal inhibitory concentration, with or without 660 nm irradiation. It is filed as cell-based. Conditions: Candida albicans, SC5314, light or radiation study, 18 h, read-out: MIC. The method, then:
as §1, §2

For a further assay, the system named is E. coli KanR. The experiment in a line: Minimal inhibitory concentration (EUCAST), with or without 660 nm irradiation. It is filed as cell-based. As for the experimental part:
as §2

Another assay concerns E. coli pET-29. The description is as above. It is filed as cell-based. As for the experimental part: as §2
The subject of a further assay is K. pneumoniae LM21. Described as above. It is filed as cell-based. Conditions: read-out: MIC. The method, then:
as §2

The subject of a further assay is A. baumannii DSM30011. The experiment in a line: Antibacterial photodynamic therapy on biofilm cells. It counts as cell-based, Acinetobacter baumannii. The source says: Compounds Neo-Ce6 and Tobra-Ce6 caused strong drop in survival for biofilms of A. baumannii […], P. aeruginosa species and S. aureus Mu50. […] Tobra-Ce6 had its strongest effect on A. baumannii DSM30011 with more than 4 log10 CFU/mL drop in survival and a drop of 1.7 log10 CFU/mL in P. aeruginosa PA14. Table 2: aPDT results for biofilm cells expressed in drop in the log10 CFU/mL compared to controls.

The next assay relates to P. aeruginosa PA14. The experiment in a line: Antibacterial photodynamic therapy on planktonic cells (CFU count). It counts as cell-based. To be noted: Pseudomonas aeruginosa, PA14, light or radiation study, 0.5 h, irradiated, 5 J/mm^2 (Figure 5a), read-out: Survival drop. The method, then: as §1
(§3) Cells were brought to stationary phase by incubating them in MHB-CA for at least 18 hours at 37°C with 180 rpm and diluted to an optical density of 1.0 just before the experiment. Cells were incubated for 20 minutes with either the compounds, photosensitizers alone, or aminoglycosides alone. Unless stated otherwise, a concentration of 10 µM was used for all experiments and samples were irradiated for 30 minutes at 660 nm with the Solis-660C lamp from ThorLabs, receiving a total of 5 J/mm^2. After illumination, cells were washed with phosphate-buffered saline (PBS) 1X, serially diluted and plated on Mueller-Hinton agar. The next day, colony forming units (CFUs) were counted.

In the next assay the test system is P. aeruginosa PAO1. Described as above. It is filed as cell-based. To be noted: Pseudomonas aeruginosa, PAO1, light or radiation study, 0.5 h, 10 µM, irradiated, 5 J/mm^2 (Figure 5c), read-out: Survival drop. The method, then:
as §1, §3

In assay [1] the test system is S. aureus Newman persister cells. The experiment in a line: Antibacterial photodynamic therapy on persister cells. It is filed as cell-based, Staphylococcus aureus. Conditions: persister cells (24 hours, 1 mM neomycin); irradiated, 5 J/mm^2 (Figure 7a). The method, then: Persister plateau and AG concentration varied from one species to another. In S. aureus USA300, a stable plateau was obtained following 6 hours of incubation with 2 mM of neomycin. […] This control is crucial to make sure that a persister state has been achieved. […] As there are no significant differences between irradiated and non-irradiated samples, however, the production of singlet oxygen may not be the factor leading to cell death. In S. aureus Newman, cells were treated for 24 hours with 1 mM of neomycin. […] Although this synergy does exist, like in S. aureus USA300, there is no significant difference in survival for irradiated and non-irradiated samples, except for Ce6.

In assay [2] the test system is A. baumannii DSM30011 persister cells. The assay is described as above. It is filed as cell-based, Acinetobacter baumannii. To be noted: persister cells (200 µM neomycin, 24 hours); aPDT, irradiated, 5 J/mm^2. As for the experimental part:
Persister cells were obtained after incubation with 200 µM of neomycin for 24 hours.

Assay [3] concerns P. aeruginosa PA14 persister cells. The assay is described as above. To be noted: persister cells (1 mM tobramycin, 24 hours); aPDT, 5 J/mm^2. It counts as cell-based, Pseudomonas aeruginosa. As for the experimental part:
In P. aeruginosa PA14, persister cells were obtained by treating with 1 mM of tobramycin for 24 hours. The effect of aPDT was not as impactful (Figures 9a, 9b), but there was a slight drop of 1.6 and 1.1 log10 CFU/mL for Neo-Ce6 and Tobra-Ce6, respectively.

Where [4] appears, read: with (+) irradiation, 660 nm 30 minutes, 168 mJ/mm^2.

As usually defined, the MIC is the smallest concentration in the dilution series that meets the test's criterion for growth inhibition. With `C=Cc1c(C)c2cc3nc(c(CC(=O)O)c4[nH]c(cc5nc(cc1[nH]2)C(C)=C5CC)c(C)c4C(=O)O)[C@@H](CCC(=O)O)[C@@H]3C` [Ce6, chlorin e6], the MIC was > 64 µM with B. subtilis 168 (Bacillus subtilis, 168, light or radiation study, 18 h, without (-) irradiation); > 64 µM in the assay on B. subtilis 168 (setting [4]); 32 µM in the assay with C. albicans SC5314 (setting [4]); > 64 µM with C. albicans SC5314 (without (-) irradiation); > 64 µM in the assay with E. coli KanR (Escherichia coli, light or radiation study, 18 h); > 64 µM in the assay on E. coli KanR (setting [4]). For the same molecule, the MIC with E. coli pET-29 (Escherichia coli, PET29, light or radiation study, 18 h, without (-) irradiation) was > 64 µM; in the assay with E. coli pET-29 (setting [4]), > 64 µM; in the assay on K. pneumoniae LM21 (Klebsiella pneumoniae, LM21, light or radiation study, 18 h, without (-) irradiation), > 64 µM; with K. pneumoniae LM21 (setting [4]), > 64 µM. In addition, the “drop in the log10 CFU/mL compared to controls” value in the assay on A. baumannii DSM30011 (+ irradiation) is 0.71 log10 CFU/mL; in the assay with A. baumannii DSM30011 (- irradiation), 0.45 log10 CFU/mL.
On to `C=Cc1c(C)c2cc3nc(c(CC(=O)O)c4[nH]c(cc5nc(cc1[nH]2)C(C)=C5CC)c(C)c4C(=O)O)[C@@H](CCC(=O)NC[C@H]1O[C@H](O[C@@H]2[C@@H](O)[C@H](O[C@H]4O[C@H](CN)[C@@H](O)C[C@H]4N)[C@@H](N)C[C@H]2N)[C@H](O)[C@@H](N)[C@@H]1O)[C@@H]3C` [Tobra-Ce6], for which the log reduction at 10 µM in the assay on P. aeruginosa PA14 worked out at 2.6; in the assay on P. aeruginosa PAO1, 3.5. In the assay with A. baumannii DSM30011 (- irradiation), the “drop in the log10 CFU/mL compared to controls” value was found to be 1.58 log10 CFU/mL. For the same molecule, the “persister cell survival (in words)” value in assay [1] is “significantly lower than in cells treated with Ce6 alone”. The drop in [2] was 1.8 log10 CFU/mL; in assay [3], 1.1 log10 CFU/mL.
